Results on 28 molecules are retold here after patent EP4653437A2 (Innovo Therapeutics Inc., priority 2023, dated 2024).

One experiment deals with T1, human 15-PGDH (Homo sapiens, UniProt P15428).
T1 construct: purchased R&D System 5660-DH
T1 sequence (P15428 1-266): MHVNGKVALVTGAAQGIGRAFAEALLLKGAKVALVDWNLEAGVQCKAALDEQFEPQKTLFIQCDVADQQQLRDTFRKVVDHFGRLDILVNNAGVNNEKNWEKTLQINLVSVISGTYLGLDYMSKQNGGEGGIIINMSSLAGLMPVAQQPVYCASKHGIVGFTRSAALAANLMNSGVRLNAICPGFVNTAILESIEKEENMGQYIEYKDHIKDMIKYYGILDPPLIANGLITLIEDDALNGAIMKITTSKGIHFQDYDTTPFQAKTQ
Briefly: Evaluation of 15-PGDH inhibitory activity (fluorescence enzyme assay, NAD+/PGE2). It is filed as biochemical. The note with it: human 15-PGDH enzyme, fluorescence Vmax. The procedure: 15-PGDH inhibition activity of Example compounds was measured as follows. 6.7 ng of human 15-PGDH (R&D System# 5660-DH) enzyme (10 µL) was added to a black 96 well plate, 60 µL of buffer (50 mM Tris-HCl, pH 7.5, 0.01% Tween 20) was added, and 10 µL of 200 µM β-Nicotinamide adenine dinucleotide sodium salt (Sigma, Cat# N0632-5G) was added. 10 µL of (10x) compound solution in DMSO was added and reacted for 10 minutes at room temperature.

For a further experiment, the system named is A549 cells. The experiment can be described thus: Measurement of PGE2-increasing activity in A549 cells (IL-1β stimulated, PGE2 quantified in supernatant). It is filed as cell-based. Conditions: Homo sapiens, 24 h; concentration of 1 µM of each compound; IL-1β treated A549 cells; read-out: Increased PGE2 production in A549 cells. The procedure, abridged: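 A549 cells grown 24 h in F12K with 10% FBS, then switched to serum-free medium with or without IL-1β and compound (0.1% DMSO final). After 24 h at 37 °C, 5% CO2, supernatant PGE2 quantified by immunoassay.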

Structures are written as SMILES.

On to `O=C(c1cnn2c(-c3ccc4cc[nH]c(=O)c4c3)cccc12)N1CCCCC1` [Example 134, 7-(3-(piperidine-1-carbonyl)pyrazolo[1,5-a]pyridin-7-yl)isoquinolin-1(2H)-one], for which, at human 15-PGDH, the IC50 – broadly, the concentration at which inhibition is half-maximal – was not above 100 nM. Besides, the fold induction at 1 µM with A549 cells was more than 1.5.

`O=C1NCc2ccc(-c3cccc4c(C(=O)N5CCC6(CCC6)CC5)cnn34)cc21` [Example 392, 6-(3-(7-azaspiro[3.5]nonane-7-carbonyl)pyrazolo[1,5-a]pyridin-7-yl)isoindolin-1-one] registered an IC50 against human 15-PGDH not above 100 nM. Moreover, in the experiment with A549 cells, the fold induction at 1 µM was more than 1.5.

On to `COCCNC(=O)c1ccc(-c2cccc3c(C(=O)N4CCCCC4)cnn23)cc1` [Example 62, N-(2-methoxyethyl)-4-(3-(piperidine-1-carbonyl)pyrazolo[1,5-a]pyridin-7-yl)benzamide], for which, at human 15-PGDH, the IC50 is not above 100 nM. In addition, the fold induction at 1 µM with A549 cells was more than 1.5.

In turn, `COCCC(=O)Nc1ccc(-c2cccc3c(C(=O)N4CCCCC4)cnn23)cn1` [Example 103, 3-methoxy-N-(5-(3-(piperidine-1-carbonyl)pyrazolo[1,5-a]pyridin-7-yl)pyridin-2-yl)propanamide] came in with an IC50 at human 15-PGDH not above 100 nM. In addition, the fold induction at 1 µM with A549 cells is less than 1.5.

Consider `O=C1NCc2ccc(Nc3cccc4c(C(=O)N5CCCCC5)cnn34)cc21` [Example 212, 6-[[3-(piperidine-1-carbonyl)pyrazolo[1,5-a]pyridin-7-yl]amino]isoindolin-1-one], for which the IC50 at human 15-PGDH is not above 100 nM. In addition, the fold induction at 1 µM in the experiment with A549 cells is more than 1.5.

On human 15-PGDH, `O=C(Nc1ncc(-c2cccc3c(C(=O)N4CCCCC4)cnn23)cc1Cl)c1cccnc1` [Example 301, N-(3-chloro-5-(3-(piperidine-1-carbonyl)pyrazolo[1,5-a]pyridin-7-yl)pyridin-2-yl)nicotinamide] returned an IC50 not above 100 nM. In the experiment with A549 cells, the fold induction at 1 µM is more than 1.5.

As for `O=C(c1cnn2c(-c3cncc(-c4ncon4)c3)cccc12)N1CCCCC1` [Example 374, (7-(5-(1,2,4-oxadiazol-3-yl)pyridin-3-yl)pyrazolo[1,5-a]pyridin-3-yl)(piperidin-1-yl)methanone], at human 15-PGDH, the IC50 was not above 100 nM. Also, in the experiment on A549 cells, the fold induction at 1 µM is more than 1.5.

`O=C(c1cnn2c(-c3ccc(N4CC5(CCC5)C4)nc3)cccc12)N1CCCCC1` [Example 220, (7-(6-(2-azaspiro[3.3]heptan-2-yl)pyridin-3-yl)pyrazolo[1,5-a]pyridin-3-yl)(piperidin-1-yl)methanone] yielded an IC50 on human 15-PGDH not above 100 nM. Moreover, the fold induction at 1 µM in the experiment on A549 cells is more than 1.5.

Molecule `O=C(c1cnn2c(-c3ccc(N4CCC5(CCC5)C4)nc3)cccc12)N1CCCCC1` [Example 223, (7-(6-(6-azaspiro[3.4]octan-6-yl)pyridin-3-yl)pyrazolo[1,5-a]pyridin-3-yl)(piperidin-1-yl)methanone] returned a half-maximal inhibitory concentration (IC50) against human 15-PGDH not above 100 nM. In addition, the fold induction at 1 µM in the experiment with A549 cells is more than 1.5.

Regarding `Cc1nnc(-c2ccc(-c3cccc4c(C(=O)N5CCCCC5)cnn34)cc2)o1` [Example 348, [7-[4-(5-methyl-1,3,4-oxadiazol-2-yl)phenyl]pyrazolo[1,5-a]pyridin-3-yl]-(1-piperidyl)methanone], the IC50 on human 15-PGDH was not above 100 nM. Further, the fold induction at 1 µM with A549 cells is more than 1.5.

With `N#Cc1ncc(-c2ccc(-c3cccc4c(C(=O)N5CCCCC5)cnn34)cc2)cn1` [Example 305, 5-[4-[3-(piperidine-1-carbonyl)pyrazolo[1,5-a]pyridin-7-yl]phenyl]pyrimidine-2-carbonitrile], the IC50 on human 15-PGDH was not above 100 nM. For the same molecule, the fold induction at 1 µM in the experiment with A549 cells is more than 1.5.

Molecule `O=C(c1ccc(-c2cccc3c(C(=O)N4CCCCC4)cnn23)cn1)N1CCOCC1` [Example 74, (7-(6-(morpholine-4-carbonyl)pyridin-3-yl)pyrazolo[1,5-a]pyridin-3-yl)(piperidin-1-yl)methanone] yielded an IC50 on human 15-PGDH not above 100 nM. Also, the fold induction at 1 µM with A549 cells was more than 1.5.

Turning to `CN(C)C1CN(c2ccc(-c3cccc4c(C(=O)N5CCCCC5)cnn34)cn2)C1` [Example 218, (7-(6-(3-(dimethylamino)azetidin-1-yl)pyridin-3-yl)pyrazolo[1,5-a]pyridin-3-yl)(piperidin-1-yl)methanone], the IC50 against human 15-PGDH is not above 100 nM. In the experiment with A549 cells, the fold induction at 1 µM is more than 1.5.

As for `N#CCNC(=O)c1ccc(-c2cccc3c(C(=O)N4CCCCC4)cnn23)cn1` [Example 86, N-(cyanomethyl)-5-(3-(piperidine-1-carbonyl)pyrazolo[1,5-a]pyridin-7-yl)picolinamide], on human 15-PGDH, the IC50 is not above 100 nM. Further, in the experiment with A549 cells, the fold induction at 1 µM is more than 1.5.

In turn, `O=C(c1cnn2c(-c3cc(F)c(-c4noc(=O)[nH]4)c(F)c3)cccc12)N1CCCCC1` [Example 331, 3-(2,6-difluoro-4-(3-(piperidine-1-carbonyl)pyrazolo[1,5-a]pyridin-7-yl)phenyl)-1,2,4-oxadiazol-5(4H)-one] gave an IC50 at human 15-PGDH not above 100 nM. For the same molecule, the fold induction at 1 µM with A549 cells is more than 1.5.

At human 15-PGDH, `O=C(c1cnn2c(-c3cncc([N+](=O)[O-])c3)cccc12)N1CCCCC1` [Example 318, (7-(5-nitropyridin-3-yl)pyrazolo[1,5-a]pyridin-3-yl)(piperidin-1-yl)methanone] displayed a half-maximal inhibitory concentration (IC50) not above 100 nM. In addition, the fold induction at 1 µM in the experiment with A549 cells was more than 1.5.

`CN1CCN(C(=O)c2ccc(-c3cccc4c(C(=O)N5CCCCC5)cnn34)cc2)CC1` [Example 67, (4-methylpiperazin-1-yl)(4-(3-(piperidine-1-carbonyl)pyrazolo[1,5-a]pyridin-7-yl)phenyl)methanone] yielded a concentration for half-maximal inhibition (IC50) against human 15-PGDH not above 100 nM. The fold induction at 1 µM with A549 cells is more than 1.5.

For the molecule `CNC(=O)c1cncc(-c2cccc3c(C(=O)N4CCCCC4)cnn23)c1` [Example 40, N-methyl-5-(3-(piperidine-1-carbonyl)pyrazolo[1,5-a]pyridin-7-yl)nicotinamide], the IC50 at human 15-PGDH is not above 100 nM. In addition, the fold induction at 1 µM in the experiment with A549 cells is more than 1.5.

Molecule `O=C(Cc1cncnc1)Nc1ccc(-c2cccc3c(C(=O)N4CCCCC4)cnn23)cn1` [Example 407, N-[5-[3-(piperidine-1-carbonyl)pyrazolo[1,5-a]pyridin-7-yl]-2-pyridyl]-2-pyrimidin-5-yl-acetamide] showed an IC50 against human 15-PGDH not above 100 nM. Further, in the experiment on A549 cells, the fold induction at 1 µM is more than 1.5.

Consider `Nc1noc2ccc(-c3cccc4c(C(=O)N5CCCCC5)cnn34)cc12` [Example 259, [7-(3-amino-1,2-benzoxazol-5-yl)pyrazolo[1,5-a]pyridin-3-yl]-(1-piperidyl)methanone], for which, at human 15-PGDH, the IC50 is not above 100 nM. In addition, the fold induction at 1 µM in the experiment with A549 cells is more than 1.5.

Take `O=C(c1cnn2c(-c3ccc(N4CCC5(CCC5)CC4)nc3)cccc12)N1CCCCC1` [Example 222, (7-(6-(7-azaspiro[3.5]nonan-7-yl)pyridin-3-yl)pyrazolo[1,5-a]pyridin-3-yl)(piperidin-1-yl)methanone]: the IC50 on human 15-PGDH is not above 100 nM. Further, the fold induction at 1 µM in the experiment with A549 cells was more than 1.5.

Turning to `N#Cc1ccc(-c2cccc3c(C(=O)N4CCCCC4)cnn23)cc1F` [Example 22, 2-fluoro-4-(3-(piperidine-1-carbonyl)pyrazolo[1,5-a]pyridin-7-yl)benzonitrile], the IC50 on human 15-PGDH is not above 100 nM. In addition, the fold induction at 1 µM in the experiment with A549 cells is more than 1.5.

With `O=C(c1cnn2c(-c3ccc(N4CC(O)C4)nc3)cccc12)N1CCCCC1` [Example 210, (7-(6-(3-hydroxyazetidin-1-yl)pyridin-3-yl)pyrazolo[1,5-a]pyridin-3-yl)(piperidin-1-yl)methanone], the IC50 on human 15-PGDH was not above 100 nM. Further, the fold induction at 1 µM in the experiment on A549 cells is more than 1.5.

As for `O=C(c1cnn2c(-c3cccc(C=NO)c3)cccc12)N1CCCCC1` [Example 253, 3-(3-(piperidine-1-carbonyl)pyrazolo[1,5-a]pyridin-7-yl)benzaldehyde oxime], the IC50 on human 15-PGDH was not above 100 nM. For the same molecule, the fold induction at 1 µM in the experiment on A549 cells was more than 1.5.

On human 15-PGDH, `Cn1nccc1-c1cnc(F)c(-c2cccc3c(C(=O)N4CCCCC4)cnn23)c1` [Example 325, (7-(2-fluoro-5-(1-methyl-1H-pyrazol-5-yl)pyridin-3-yl)pyrazolo[1,5-a]pyridin-3-yl)(piperidin-1-yl)methanone] showed an IC50 not above 100 nM. The fold induction at 1 µM with A549 cells was more than 1.5.

The molecule `Cc1nc(-c2ccc(-c3cccc4c(C(=O)N5CCCCC5)cnn34)cc2)no1` [Example 118, (7-(4-(5-methyl-1,2,4-oxadiazol-3-yl)phenyl)pyrazolo[1,5-a]pyridin-3-yl)(piperidin-1-yl)methanone] had an IC50 against human 15-PGDH not above 100 nM. Further, in the experiment on A549 cells, the fold induction at 1 µM is more than 1.5.

In the case of `N#CCNC(=O)c1ccc(-c2cccc3c(C(=O)N4CCCCC4)cnn23)cc1` [Example 70, N-(cyanomethyl)-4-(3-(piperidine-1-carbonyl)pyrazolo[1,5-a]pyridin-7-yl)benzamide], at human 15-PGDH, the IC50 is not above 100 nM. In the experiment with A549 cells, the fold induction at 1 µM is more than 1.5.

The molecule `O=C(c1ncc(-c2cccc3c(C(=O)N4CCCCC4)cnn23)cn1)N1CCC1` [Example 277, [7-[2-(azetidine-1-carbonyl)pyrimidin-5-yl]pyrazolo[1,5-a]pyridin-3-yl]-(1-piperidyl)methanone] registered a half-maximal inhibitory concentration (IC50) at human 15-PGDH not above 100 nM. Also, the fold induction at 1 µM in the experiment on A549 cells was more than 1.5.
